Consider six compounds from US20050009151A1, “Methods for the stereospecific and enantiomeric enrichment of beta-amino acids” (Pharmacia Corporation, priority 2003, published 2005).

For test [1], the system named is β-aminotransferase from Alcaligenes eutrophus. Description: Synthesis of β-amino acid from β-keto acid with cell lysate from Alcaligenes eutrophus. The test is classed as biochemical. Conditions: approximately 45 mM substrate, approximately 84 mM alanine, 47 hours. The method, then: (§1) A buffer consisting of 0.3M Tricine, 15 mM MgSO4, enough pyridoxal phosphate to impart a pale yellow color and 0.3M sodium glutamate (for deamination reactions) or 0.3 M 2-ketoglutarate monopotassium salt (for synthesis reactions) was prepared.
[…] Reactions were typically run at 1 ml scale with gentle shaking at 26° C.
(§2) 10 ul of 2N HCl was added to a plastic screw capped vial and 90ul of sample was then added. The pH of the mixture confirmed to be below 4 and the mixture was centrifuged in a microcentrifuge at maximum speed for about 2 minutes to remove precipitated materials.
Samples were derivatized using Marfey's reagent, N•-(2,4-dinitro-5-fluorophenyl)-L-alaninamide. A stock solution of 10 mg/mL in acetone of this reagent was prepared. Either 20 or 40 ul of bioconversion sample was added to 20 ul 1.3 M KHCO3. To this was added 80 ul of the stock reagent solution, the vial sealed tightly, and heated at 70° C. for 10 minutes. As needed, after cooling to room temperature, the heated samples were centrifuged to remove solids. The supernatants were analyzed using an Eclipse XDB-C8 column, 4.6×150 mm, eluting with methanol gradient in water, from 50% methanol to 100% methanol. Both solvents were acidified with 0.1% trifluoroacetic acid. […]

The test system of test [2] is Alcaligenes eutrophus L-β-aminotransferase. Description: Amino donor screen, production of β-phenylalanine from 3-keto-3-phenylpropionic acid. Conditions: 200 mM amino donor, pyruvate decarboxylase, 24 hours. The test is classed as biochemical. The protocol:
The assays contained: 0.1-0.3 mg/ml protein, 10 mg/ml keto acceptor, 200 mM amino donor, 0.1 mM pyridoxal phosphate, and 100 mM potassium phosphate, at pH 8.0. 0.1 units of pyruvate decarboxylase was included to prevent the reversible reaction from reaching equilibrium. The reactions were run at 37° C. with gentle stirring for 24 hours. At 24 hours reaction time, 0.1 ml samples were withdrawn, acidified with addition of 0.1 ml 0.1N HCl, and centrifuged. The supernatant solution was collected into HPLC sample vials. Conversion of amino acid to the corresponding ketone was quantified using reverse phase HPLC. Amino donors screened were (L)-alanine, (D)-alanine, and β-alanine.

For test [3], the system named is gamma aminobutyrate transaminase. As to conditions: J. Biochem 81, 1375-1381, 1977; cited from earlier work.
The test system of test [4] is α-alanine aminotransferase. Conditions: J. Biochem 81, 1375-1381, 1977; cited from earlier work.
Test [5] deals with Variovorax paradoxus β-aminotransferase. Description: Synthesis of β-amino acid from β-keto acid with Variovorax paradoxus β-aminotransferase. The test is classed as biochemical. Conditions: sodium sulfate purified β-aminotransferase, 3 hours. The method, then:
as §1
One part buffer was combined with two parts lysate and this mixture was then added to pre-weighed substrate to give a concentration of 1 mg/ml substrate. Reactions were typically run at 1 ml scale with gentle shaking at 26° C.
as §2
Samples were derivatized using Marfey's reagent, N•-(2,4-dinitro-5-fluorophenyl)-L-alaninamide. A stock solution of 10 mg/mL in acetone of this reagent was prepared. Either 20 or 40 ul of bioconversion sample was added to 20 ul 1.3 M KHCO3. To this was added 80 ul of the stock reagent solution, the vial sealed tightly, and heated at 70° C. for 10 minutes. As needed, after cooling to room temperature, the heated samples were centrifuged to remove solids. The supernatants were analyzed using an Eclipse XDB-C8 column, 4.6×150 mm, eluting with methanol gradient in water, from 50% methanol to 100% methanol. Both solvents were acidified with 0.1% trifluoroacetic acid.
For synthesis experiments, in which β-keto acid was converted to β-amino acid, the area of the peak(s) was compared to a standard curve derived for β-phenylalanine.

The structures appear in SMILES notation.

As for `O=C(O)CC(=O)c1ccccc1F` [3-(2-Fluorobenzene)beta-oxopropanoic acid], the “2-fluoro-beta-phenylalanine formed, using beta-phenylalanine as standard” value in test [1] is “approximately 0.1 mg/mL”.
Consider `C[C@@H](N)C(=O)O` [(D)-alanine], for which the “utilized by the enzyme as an amino donor in the production of β-phenylalanine” value (“utilized by the enzyme” below) in test [2] was “Only (L)-alanine was utilized by the enzyme”.
For `C[C@H](N)C(=O)O` [(L)-alanine], in test [2], the “utilized by the enzyme” value was “utilized by the enzyme as an amino donor”.
As for `NCCCC(=O)O` [gamma aminobutyrate], the activity on substrate is recorded as 100 in test [3] and 43 in test [4].
In the case of `O=C(O)C(=O)Cc1ccccc1F` [o-fluoro-phenyl-2-oxopropanoic acid], in test [5], the “product stereoisomer peak observed” value is on record as “only later eluting peak was observed” and the “β-amino acid formed, using β-phenylalanine as standard” value is given as “approximately 0.02 mg/mL”.
Take `NCCC(=O)O` [β-alanine]: the activity on substrate in test [3] is recorded as 3; in test [4] it was 100. Moreover, the “utilized by the enzyme” value in test [2] is given as “Only (L)-alanine was utilized by the enzyme”.
